One data set concerns M. tuberculosis. Conditions: added to or substituted in isoniazid, rifampicin and pyrazinamide triple therapy; cited from earlier work.
Another data set deals with pulmonary tuberculosis. The note with it: given alone; cited from earlier work.
The conditions of data set [1]: in vivo; cited from earlier work.
The conditions of data set [2]: 2 mg/kg; amikacin 450 mg/kg; cited from earlier work.
Another data set concerns latent tuberculosis. The note with it: taken daily for 9 months; cited from earlier work.
Another data set relates to tuberculosis bacteria. Conditions: treated for 3 days, versus untreated sample; cited from earlier work.
The test system of data set [3] is Mycobacterium tuberculosis growth. Conditions: cited from earlier work.
Data set [4] has as its system MCF-7 Human Breast Cancer Cells. Conditions: insulin with methotrexate; cited from earlier work.
A short description of data set [5]: Finger stick blood sugar after insulin. In kind it is in vivo, human. Conditions: 10 minutes after 5-10 units subcutaneously or IV. Here is the method:
Blood sugar was tested by using finger stick. We administered 5-10 units of homolog (rapid acting) insulin subcutaneously or IV slowly depending on the blood sugar levels. The glucose was checked 10 minutes later. It has dropped to ±40 mg %.

The target of data set [6] is proprotein convertase subtilisin-kexin type 9 (PCSK9) (Homo sapiens, UniProt Q8NBP7). Conditions: parenteral administration; cited from earlier work.

`COc1nc2ccc(Br)cc2cc1[C@@H](c1ccccc1)[C@@](O)(CCN(C)C)c1cccc2ccccc12` [R-207910, Bedaquiline]: the effectiveness of treatment entry in the data set with M. tuberculosis is “increased the effectiveness”. Take `[H]/N=C(/N)N[C@H]1[C@H](O)[C@@H](O)[C@H](O[C@@H]2O[C@@H](C)[C@](O)(C=O)[C@H]2O[C@@H]2O[C@@H](CO)[C@H](O)[C@@H](O)[C@@H]2NC)[C@@H](N/C(N)=N\[H])[C@@H]1O` [Streptomycin]: the immediate mortality entry in the data set with pulmonary tuberculosis was “dramatic reduction in immediate mortality”. The “ADVERSE EVENT/CONTRAINDICATION” value in data set [1] is on record as “Deafness, Contraindicated during pregnancy”. Turning to `CCOC(=O)C1=C[C@]2(CC)CCCN3CCc4c(n1c1ccccc41)[C@@H]32` [Vinpocetine], the hearing loss entry in [2] is “prevented hearing loss”. For `NNC(=O)c1ccncc1` [isoniazid, Isoniazid], the “ADVERSE EVENT/CONTRAINDICATION” value in data set [1] is “Peripheral neuropathy”. The “reduction of the risk of active TB” value in the data set with latent tuberculosis is on record as at most 90%. The “intracellular levels of ferrous ions” value with tuberculosis bacteria is given as “up to ten times higher”. For Capreomycin, the “adverse effects stated in the text” value in [1] is “nephrotoxicity and 8th cranial auditory vestibular nerve toxicity”. Moreover, the concentration inhibiting growth in [3] was 2.5 µg/mL.

For “insulin: hormone produced in beta cells of pancreas, large polypeptide of A and B chains”, the “enhancement of the activity of methotrexate” value in data set [4] is recorded as 10,000 times. Further, in data set [5], the “blood glucose by finger stick” value is recorded as about 40 mg %.

B1: evolocumab: human monoclonal antibody that inhibits PCSK9 (antibody, chains of the INN, looked up, V domains shown)
VH: EVQLVQSGAEVKKPGASVKVSCKASGYTLTSYGISWVRQAPGQGLEWMGWVSFYNGNTNYAQKLQGRGTMTTDPSTSTAYMELRSLRSDDTAVYYCARGYGMDVWGQGTTVTVSS
VL: ESALTQPASVSGSPGQSITISCTGTSSDVGGYNSVSWYQQHPGKAPKLMIYEVSNRPSGVSNRFSGSKSGNTASLTISGLQAEDEADYYCNSYTSTSMVFGGGTKLTVL
Consider B1, for which, in [6], the “reduction in LDL cholesterol levels” value is on record as 60%.
